Patent US20140303166A1, “COSMETIC METHOD FOR CHANGING THE APPEARANCE OF EYES” (priority 2013, published 2014)
Where a name gives a salt, the structure may show the parent alone.

system: eyelids; test: topical application to the eyelids (eyelid retraction / eye-widening); assay type: in vivo; conditions: topically applied, alone or in combination
Text: Topical treatments to which the current application is directed include ointments, creams, and solutions that contain one or more of the compounds travoprost, dorzolamide hydrochloride, and timolol maleate, alone or in combination, and/or one or more chemically-related compounds and may also include pure forms of various types of prostaglandin, synthetic prostaglandin, and synthetic prostaglandin analogues.

Structure (SMILES)	eyelid retraction after topical application to the eyelids
CCNC(=O)CCCC=CCC1C(O)CC(O)C1C=CC(O)CCc1ccccc1 (stereo not drawn) [bimatoprost, 7-[3,5-dihydroxy-2-(3-hydroxy-5-phenyl-pent-1-enyl)-cyclopentyl]-N-ethyl-hept-5-enamide]	cause the eyelids to retract more completely
CCN[C@H]1C[C@H](C)S(=O)(=O)c2sc(S(N)(=O)=O)cc21 [dorzolamide hydrochloride, (4S,6S)-2-ethylamino-4-methyl-5,5-dioxo-5λ^6,7dithiabicyclo[4.3.0] nona-8,10-diene-8-sulfonamide]	cause the eyelids to retract more completely
CC(C)OC(=O)CCC/C=C\C[C@@H]1[C@@H](CC[C@@H](O)CCc2ccccc2)[C@H](O)C[C@@H]1O [latanoprost, isopropyl (Z)-7-[(1R,2R,3R,5S)-3,5-dihydroxy-2-[(3R)3-hydroxy-5-phenylpentyl]-cyclopentyl] hept-5-enoate]	cause the eyelids to retract more completely
CC(C)(C)NC[C@H](O)COc1nsnc1N1CCOCC1 [timolol maleate, (S)-1-(tert-butylamino)-3-[(4-morpholin-4-yl-1,2,5-thiadiazol-3-yl)oxy]propan-2-ol]	cause the eyelids to retract more completely
CC(C)OC(=O)CCCC=CCC1C(O)CC(O)C1C=CC(O)COc1cccc(C(F)(F)F)c1 (stereo not drawn) [travoprost, propan-2-yl 7-[3,5-dihydroxy-2-[3-hydroxy-4-[3-(trifluoromethyl)phenoxy]-but-1-enyl]-cyclopentyl]hept-5-enoate]	cause the eyelids to retract more completely
CCCCCCCC(=O)CC[C@@H]1[C@@H](C/C=C\CCCC(=O)OC(C)C)[C@@H](O)C[C@H]1O [unoprostone, isopropyl (Z)-7-[(1R,2R,3R,5 S)-3,5-dihydroxy-2-(3-oxodecyl)cyclopentyl] hept-5-enoic acid]	cause the eyelids to retract more completely
